# Results from patent US20210139435A1, “PROSTAGLANDIN ANALOGS AND USES THEREOF” (Lifex Biolabs, Inc., priority 2019, published 2021).
# Target: T1, mouse Nurr1 full-length (Mus musculus, UniProt Q06219)
# T1 construct: pcDNA3.1 Myc/His mouse Nurr1 full-length construct; expressed in transfected cells; host or cells: SK-N-BE2C
# Experiment: Luciferase reporter gene assay for Nurr1 transcriptional activity in SK-N-BE2C cells
# Assay type: cell-based
# Conditions: relative activity over control (luminescence value; 1.0)
# Description: To investigate whether the PG analogs of the present invention activate Nurr1 function, the inventors of the present invention employed an reporter gene assay and examined the transcriptional activation as described in Kim, C.-H. et al., Proceedings of the National Academy of Sciences 112, 8756-8761, doi:10.1073/pnas.1509742112 (2015).
# The gene assay was performed by Luciferase assay as described below:
# [Protocol for Luciferase Assay to Determine Nurr1 Transcriptional Activity] • 1. SK-N-BE2C cells were maintained in HyClone™ DMEM High Glucose (Cat. No.: SH30022.01) with 10% (v/v) fetal bovine serum (FBS), 100 units/ml penicillin and 100 μg/ml streptomycin. • 2. Seed 1.5×10^5 SK-N-BE2C cells/well into a 24-well plate and incubate at 37° C. with 5% CO2 for 24 hours. • 3. After 24 hours, transfect cells with pcDNA3.1 Myc/His mouse Nurr1 full-length construct, firefly luciferase reporter vector (pGL-3 basic from Promega, Cat. No.:E1751; with appropriate response element cloned in) and Renilla luciferase control vector (pRL-null from Promega, Cat. No.:E2271) in the ratio of 8:1:1 (Nurr1: firefly: renilla) or 400 ng, 50 ng and 50 ng respectively, amounting to a total of 500 ng in the 50 μl transfection mix for 1 well. • 4. To make the transfection mix, first prepare the DNA with P3000 reagent by adding the appropriate amount of DNA with 1 μl P3000 reagent and top up with Opti-MEM® I Reduced-Serum Media (from ThermoFisher Scientific [Cat. No.: 31985070]) to 25 μl. Incubate for 5 minutes at room temperature. • 5. Make another mix consisting of 1 μl Lipofectamine 3000 reagent with 24 μl Opti-MEM® I Reduced-Serum Media per well. Add this Lipofectamine mix to the previous DNA-P3000 mix (after the previous 5 minute incubation) and incubate them for 15 minutes at room temperature. [P3000:Lipofectamine=1:1]. • 6. In the meantime, change the media in the sample wells with fresh DMEM media without antibiotics. • 7. After 15 minutes incubation, add the 50 μl transfection mix into each well and incubate the plate for 24 hours at 37° C. with 5% CO2. • 8. After 24 hours, change the media to normal DMEM media with antibiotics and add various doses of compounds into designated wells and incubate the plate for another 24 hours at 37° C. with 5% CO2. • 9. Following the 24-hour incubation period, luciferase assay can be conducted using Dual-Glo Luciferase® kit from Promega (Cat. No.: E2920). • 10. Lyse each tested wells for 15 minutes with 75 μl of passive lysis buffer provided in the Dual-Luciferase® kit from Promega (Cat. No.: E1910). [Alternatively, add 75 μl of PBS and 75 μl of Dual-Glo® Luciferase Reagent and incubate for 10 minutes at room temperature (cover the plate with foil to protect from light). Transfer the entire sample in each well to a Greiner CELLSTAR® 96-well white polystyrene plate then proceed to step 13]. • 11. After 15 minutes, transfer each lysed sample to a Greiner CELLSTAR® 96-well white polystyrene plate (Cat. No.:655083). • 12. To each well of lysed cells, add 75 μl of Dual-Glo® Luciferase Reagent and incubate for 10 minutes at room temperature (cover the plate with foil to protect from light). • 13. Set the measurement with a 10-second integrated measurement period. • 14. Add 75 μl of Dual-Glo® Stop & Glo® reagent into each well and incubate for 10 minutes before commencing with the same parameters as before to determine the RLU for the Renilla luciferase. • 15. The averaged reading for wells corresponding to non-transfected cells can be subtracted from each RLU reading and duplicate/triplicate readings can then be averaged. Normalization of the luminescence reading for each well can be carried out by dividing the firefly luciferase RLU with the corresponding Renilla luciferase RLU. Each drug-treated well can then be normalized against the averaged DMSO-treated well reading.
# T1 sequence (Q06219 whole entry): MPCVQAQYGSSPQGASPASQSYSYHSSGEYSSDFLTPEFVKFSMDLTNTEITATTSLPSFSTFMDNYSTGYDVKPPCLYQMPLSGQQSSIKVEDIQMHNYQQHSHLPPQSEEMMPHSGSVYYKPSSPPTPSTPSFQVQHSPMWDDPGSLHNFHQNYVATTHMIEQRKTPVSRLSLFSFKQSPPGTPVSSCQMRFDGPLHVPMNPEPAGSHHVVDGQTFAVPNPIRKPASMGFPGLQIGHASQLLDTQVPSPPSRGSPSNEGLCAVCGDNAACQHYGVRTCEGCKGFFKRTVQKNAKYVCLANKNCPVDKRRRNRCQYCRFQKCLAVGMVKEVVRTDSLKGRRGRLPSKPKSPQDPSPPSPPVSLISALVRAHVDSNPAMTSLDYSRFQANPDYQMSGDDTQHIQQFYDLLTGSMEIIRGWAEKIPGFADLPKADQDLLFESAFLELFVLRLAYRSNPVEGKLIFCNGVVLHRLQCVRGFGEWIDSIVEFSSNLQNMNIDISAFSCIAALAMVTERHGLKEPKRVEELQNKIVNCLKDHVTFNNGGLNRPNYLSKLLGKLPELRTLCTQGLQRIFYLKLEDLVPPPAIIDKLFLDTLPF
row,Compound,Fold activity (1 uM)
1,"CCCCC[C@H](O)/C=C/[C@H]1[C@H](O)CC(=O)[C@@H]1CC(=O)CCCCC(=O)O [Compound 42, 6-keto Prostaglandin E1]",A (above 2.0 (high activity))
2,"CCCCC[C@H](O)C/C=C1/C(=O)C[C@H](O)[C@@H]1C/C=C\CCCC(=O)O [Compound 41, D12-Prostaglandin D2]",C (below 1.0 (low activity))
3,"O=C(O)CCCCC(=O)CC[C@H]1[C@H](O)CC(=O)[C@@H]1CCC(=O)O [Compound 46, tetranor-PGEM]",C (below 1.0 (low activity))
4,"CCCCC[C@@](C)(O)/C=C/[C@H]1C(=O)C[C@H](O)[C@@H]1C/C=C\CCCC(=O)O [Compound 49, 15(R)-15-methyl Prostaglandin D2]",C (below 1.0 (low activity))
5,"CCCCC[C@H](O)/C=C/[C@H]1C(=O)C[C@H](O)[C@@H]1C/C=C\CCCC(=O)OC [Compound 55, Prostaglandin D2 methyl ester]",C (below 1.0 (low activity))
6,"CCCCC[C@H](O)/C=C/[C@H]1[C@H](O)CC(=O)[C@@H]1CCCCCCCCC(=O)O [Compound 34, 1a,1b-dihomo Prostaglandin E1]",B (1.1~2.0 (moderate))
7,"CCCCC[C@H](O)/C=C/[C@H]1[C@H](O)CC(=O)[C@@H]1C/C=C/CCCC(=O)O (relative stereo) [Compound 60, 5-trans Prostaglandin E2]",B (1.1~2.0 (moderate))
8,"CCCCC[C@H](O)/C=C/[C@H]1[C@H](O)CC(=O)[C@@H]1CCCCCCC(=O)Nc1ccccc1 [Compound 4, 7-((1R,2R,3R)-3-hydroxy-2-((S,E)-3-hydroxyoct-1-enyl)-5-oxocyclopentyl)-N-phenylheptanamide]",A (above 2.0 (high activity))
9,"CCCCC(C)(O)C/C=C/[C@H]1[C@H](O)CC(=O)[C@@H]1CCCCCCC(=O)Oc1ccc(NC(=O)c2ccccc2)cc1 (stereo partly drawn) [Compound 2, 4-Benzamidophenyl-7-((1R,2R,3R)-3-hydroxy-2-((E)-4-hydroxy-4-methyloct-1-en-1-yl)-5-oxocyclopentyl)heptanoate]",A (above 2.0 (high activity))
10,"CCCCC[C@H](O)/C=C/[C@H]1[C@H](O)CC(=O)[C@@H]1CCCCCCC(=O)Oc1ccc(NC(=O)c2cc(F)cc(F)c2)cc1 [Compound 13, 4-(3,5-difluorobenzamido)phenyl 7-((1R,2R,3R)-3-hydroxy-2-((S,E)-3-hydroxyoct-1-enyl)-5-oxocyclopentyl)heptanoate]",A (above 2.0 (high activity))
11,"CCCCC[C@@](C)(O)/C=C/[C@H]1[C@H](O)CC(=O)[C@@H]1C/C=C\CCCC(=O)O [Compound 53, 15(R)-15-methyl Prostaglandin E2]",B (1.1~2.0 (moderate))
12,"CCCCC(C)(C)[C@@H](O)/C=C/[C@H]1[C@H](O)CC(=O)[C@@H]1CCCCCCC(=O)O [Compound 51, 16,16-dimethyl Prostaglandin E1]",A (above 2.0 (high activity))
13,"CCCCC[C@@H](O)/C=C/[C@H]1[C@H](O)CC(=O)[C@@H]1C/C=C\CCCC(=O)O [Compound 37, 15(R)-Prostaglandin E2]",B (1.1~2.0 (moderate))
14,"CCCCC[C@@H](O)/C=C/[C@H]1C(=O)C[C@H](O)[C@@H]1CCCCCCCO [Compound 56, Prostaglandin D1 Alcohol]",C (below 1.0 (low activity))
15,"CCCC1([C@H](O)C/C=C/[C@H]2[C@H](O)CC(=O)[C@@H]2CCCCCCC(=O)OC)CCC1 [Compound 35, (R)-Butaprost]",B (1.1~2.0 (moderate))
16,"CCCCC[C@](C)(O)/C=C/[C@H]1C(=O)C[C@H](O)[C@@H]1C/C=C\CCCC(=O)O [Compound 57, 15(S)-15-methyl Prostaglandin D2]",B (1.1~2.0 (moderate))
17,"O=C(O)CCC/C=C\C[C@H]1C(=O)C[C@@H](O)[C@@H]1/C=C/[C@@H](O)CCc1ccccc1 [Compound 38, 17-phenyl trinor Prostaglandin E2]",B (1.1~2.0 (moderate))
18,"CCCCC[C@H](O)/C=C/[C@H]1[C@H](O)CC(=O)[C@@H]1CCCCCCC(=O)Nc1ccc2cccnc2c1 [Compound 8, 7-((1R,2R,3R)-3-hydroxy-2-((S,E)-3-hydroxyoct-1-enyl)-5-oxocyclopentyl)-N-(quinolin-7-yl)heptanamide]",A (above 2.0 (high activity))
19,"CCCCC[C@H](O)/C=C/[C@H]1[C@H](O)CC(=O)[C@@H]1C/C=C\CCCC(=O)Oc1ccc(NC(=O)c2ccccc2)cc1 [Compound 52, Prostaglandin E2 p-benzamidophenyl ester]",A (above 2.0 (high activity))
20,"CCCCC(C)(O)C/C=C/[C@H]1[C@H](O)CC(=O)[C@@H]1CCCCCCC(=O)NOc1ccccc1 (stereo partly drawn) [Compound 10, 7-((1R,2R,3R)-3-hydroxy-2-((E)-4-hydroxy-4-methyloct-1-enyl)-5-oxocyclopentyl)-N-phenoxyheptanamide]",A (above 2.0 (high activity))
21,"CCCCC[C@H](O)/C=C/[C@H]1[C@H](O)CC(=O)[C@@H]1C/C=C\CCCC(=O)NC(CO)CO [Compound 40, Prostaglandin E2 serinol amide]",C (below 1.0 (low activity))
22,"CCCCCC(=O)/C=C/[C@H]1[C@H](O)CC(=O)[C@@H]1CCCCCCC(=O)O [Compound 19, 15-keto Prostaglandin E1]",B (1.1~2.0 (moderate))

# Other lines, results leading:
row,Fold activity (1 uM),Compound
1,B (1.1~2.0 (moderate)),"C[C@@H](O)CCC[C@H](O)/C=C/[C@H]1[C@H](O)CC(=O)[C@@H]1CCCCCCC(=O)O [Compound 83, 19(R)-hydroxy Prostaglandin E1]"
2,B (1.1~2.0 (moderate)),"CCCCCC(=O)CCC1C(O)CC(=O)C1CCCCCCC(=O)O (centres unmarked) [Compound 74, 13,14-dihydro-15-keto Prostaglandin E1]"
3,C (below 1.0 (low activity)),"CCCCCC(=O)CCC1C(=O)CC(O)C1CCCCCCC(=O)O (centres unmarked) [Compound 79, 13,14-dihydro-15-keto Prostaglandin D1]"
4,C (below 1.0 (low activity)),"CCCCC[C@@H](O)/C=C/[C@H]1[C@H](O)CC(=O)[C@@H]1CCCCCCC(=O)O [Compound 87, 15(R)-PGE1]"
5,A (above 2.0 (high activity)),"CCCCC[C@H](O)/C=C/[C@H]1[C@H](O)CC(=O)[C@H]1C/C=C\CCCC(=O)OC(C)C [Compound 76, 8-iso Prostaglandin E2 isopropyl ester]"
6,A (above 2.0 (high activity)),"CC/C=C\C[C@H](O)/C=C/[C@H]1[C@H](O)CC(=O)[C@@H]1C/C=C\CCCC(=O)O [Compound 70, Prostaglandin E3]"
7,C (below 1.0 (low activity)),"CCCCC[C@H](O)/C=C/[C@H]1C(=O)C[C@H](O)[C@@H]1C/C=C\CCCC(=O)NCCO [Compound 72, Prostaglandin D2 Ethanolamide]"
8,B (1.1~2.0 (moderate)),"CCCCC(C)(O)C/C=C/[C@H]1[C@H](O)CC(=O)[C@@H]1CCCCCCC(=O)O (mixture of isomers) [Compound 94, Misoprostol acid]"
9,B (1.1~2.0 (moderate)),"CC(C)OC(=O)CCC/C=C\C[C@@H]1[C@@H](CC[C@@H](O)CCc2ccccc2)[C@H](O)C[C@@H]1O [Compound 91, Latanoprost]"
10,B (1.1~2.0 (moderate)),"CCCCC[C@H](O)/C=C/[C@@H]1[C@@H](C/C=C\CCCC(=O)O)[C@@H](O)C[C@H]1O.NC(CO)(CO)CO [Compound 92, DinoprostTromethanol]"
